Reference: patent US9296741B2, “Bromodomain inhibitors” (priority 2012, dated 2016)

Experiments:
[1] = target: human BRD4 second bromodomain (BDII_E352-M457) (Homo sapiens (Human), UniProt O60885); experiment: TR-FRET bromodomain binding assay, BRD4 second bromodomain
[2] = target: human BRD4 first bromodomain (BDI_K57-E168) (Homo sapiens (Human), UniProt O60885); experiment: TR-FRET bromodomain binding assay, BRD4 first bromodomain
[3] = system: breast cancer cell line MX-1; experiment: MX-1 cell line proliferation assay; assay type: cell-based, human; settings: Homo sapiens, MX1, 72 h; MX-1 cells, 3-day proliferation, Cell Titer Glo; read-out: Cellular proliferation: EC50
[4] = Rat liver microsome stability assay; assay type: in vitro ADME; settings: rat liver microsomes (male Sprague-Dawley), 0.5 μM test compound, pH 7.4, 37° C.; for Stability in rat liver microsomes (t1/2 in minutes): […] microsomal protein; for half-life at 0.5 μM: 0.25 mg/mL microsomal protein, read-out: Stability in rat liver microsomes (t1/2 in minutes)
[5] = Human liver microsome stability assay; assay type: in vitro ADME; settings: both sexes, human, microsomes, pH 7.4

Ki [1] | Ki [2] | EC50 [3] | Stability in rat liver microsomes (t1/2 in minutes) [4] | half-life at 0.5 μM [4] | half-life at 0.5 μM [5] | SMILES
344 nM | 238 nM | – | – | – | – | Cn1cc(-c2cc(C(=O)NCCc3ccc4c(c3)OCO4)ccc2Oc2ccc(F)cc2F)c2cc[nH]c2c1=O [Example 132, N-[2-(1,3-benzodioxol-5-yl)ethyl]-4-(2,4-difluorophenoxy)-3-(6-methyl-7-oxo-6,7-dihydro-1 H-pyrrolo[2,3-c]pyridin-4-yl)benzamide]
295 nM | 234 nM | – | – | – | – | Cn1cc(-c2cc(C(=O)NC3CCN(C(=O)OC(C)(C)C)CC3)ccc2Oc2ccc(F)cc2F)c2cc[nH]c2c1=O [Example 136, tert-butyl 4-{[4-(2,4-difluorophenoxy)-3-(6-methyl-7-oxo-6,7-dihydro-1H-pyrrolo[2,3-c]pyridin-4-yl)benzoyl]amino}piperidine-1-carboxylate]
– | – | 295 nM | – | – | – | Cn1cc(-c2cc(S(C)(=O)=O)ccc2Oc2cc(C(F)(F)F)ccc2Cl)c2cc[nH]c2c1=O [Example 163, 4-{2-[2-chloro-5-(trifluoromethyl)phenoxy]-5-(methylsulfonyl)phenyl}-6-methyl-1,6-dihydro-7H-pyrrolo[2,3-c]pyridin-7-one]
17.8 nM | 25.8 nM | – | – | – | – | Cn1cc(-c2cc(S(C)(=O)=O)ccc2Oc2cccc3c2CCC3=O)c2cc[nH]c2c1=O [Example 175, 6-methyl-4-{5-(methylsulfonyl)-2-[(1-oxo-2,3-dihydro-1H-inden-4-yl)oxy]phenyl}-1,6-dihydro-7H-pyrrolo[2,3-c]pyridin-7-one]
22.4 nM | 30.5 nM | – | – | – | – | Cn1cc(-c2cc(S(C)(=O)=O)ccc2Oc2ccc3c(c2)CCC3=O)c2cc[nH]c2c1=O [Example 181, 6-methyl-4-{5-(methylsulfonyl)-2-[(1-oxo-2,3-dihydro-1H-inden-5-yl)oxy]phenyl}-1,6-dihydro-7H-pyrrolo[2,3-c]pyridin-7-one]
9.7 nM | 19 nM | – | – | – | – | Cn1cc(-c2cc(S(C)(=O)=O)ccc2Oc2ccc3c(c2)C(=O)CC3)c2cc[nH]c2c1=O [Example 182, 6-methyl-4-{5-(methylsulfonyl)-2-[(3-oxo-2,3-dihydro-1H-inden-5-yl)oxy]phenyl}-1,6-dihydro-7H-pyrrolo[2,3-c]pyridin-7-one]
19.8 nM | 41.2 nM | – | – | – | – | Cn1cc(-c2cc(S(C)(=O)=O)ccc2Oc2ccccc2C#N)c2cc[nH]c2c1=O [Example 183, 2-[2-(6-methyl-7-oxo-6,7-dihydro-1H-pyrrolo[2,3-c]pyridin-4-yl)-4-(methylsulfonyl)phenoxy]benzonitrile]
– | – | 78.8 nM | – | – | – | Cn1cc(-c2cc(S(C)(=O)=O)ccc2Oc2cccc(Cl)c2F)c2cc[nH]c2c1=O [Example 184, 4-[2-(3-chloro-2-fluorophenoxy)-5-(methylsulfonyl)phenyl]-6-methyl-1,6-dihydro-7H-pyrrolo[2,3-c]pyridin-7-one]
12.2 nM | 34.5 nM | – | – | – | – | Cn1cc(-c2cc(S(C)(=O)=O)ccc2Oc2cccc3ccccc23)c2cc[nH]c2c1=O [Example 185, 6-methyl-4-[5-(methylsulfonyl)-2-(naphthalen-1-yloxy)phenyl]-1,6-dihydro-7H-pyrrolo[2,3-c]pyridin-7-one]
23 nM | 30.4 nM | – | – | 55 min | 34 min | Cn1cc(-c2cc(S(C)(=O)=O)ccc2Oc2ccc(Cl)c(F)c2)c2cc[nH]c2c1=O [Example 189, 4-[2-(4-chloro-3-fluorophenoxy)-5-(methylsulfonyl)phenyl]-6-methyl-1,6-dihydro-7H-pyrrolo[2,3-c]pyridin-7-one]
1020 nM | 5500 nM | – | 1 min | – | 13 min | Cn1cc(-c2ccccc2Cc2ccccc2)c2cc[nH]c2c1=O [Example 195, 4-(2-benzylphenyl)-6-methyl-1,6-dihydro-7H-pyrrolo[2,3-c]pyridin-7-one]
3000 nM | 1100 nM | – | – | – | – | Cc1cccc(OCC2CC2)c1-c1cn(C)c(=O)c2[nH]ccc12 [Example 247, 4-[2-(cyclopropylmethoxy)-6-methylphenyl]-6-methyl-1,6-dihydro-7H-pyrrolo[2,3-c]pyridin-7-one]
489 nM | 125 nM | – | – | 25 min | > 120 min | Cc1c(NS(C)(=O)=O)ccc(OCC2CC2)c1-c1cn(C)c(=O)c2[nH]ccc12 [Example 262, N-[4-(cyclopropylmethoxy)-2-methyl-3-(6-methyl-7-oxo-6,7-dihydro-1H-pyrrolo[2,3-c]pyridin-4-yl)phenyl]methanesulfonamide]
1130 nM | 526 nM | – | – | – | – | Cn1cc(-c2cc(C(F)(F)F)ccc2Oc2ccc(F)cc2F)c2cc[nH]c2c1=O [Example 275, 4-[2-(2,4-difluorophenoxy)-5-(trifluoromethyl)phenyl]-6-methyl-1,6-dihydro-7H-pyrrolo[2,3-c]pyridin-7-one]

The remaining lines, values behind:

SMILES | Ki [1] | Ki [2] | EC50 [3] | Stability in rat liver microsomes (t1/2 in minutes) [4] | half-life at 0.5 μM [4] | half-life at 0.5 μM [5]
Cn1cc(-c2cc([N+](=O)[O-])ccc2Oc2ccccc2)c2cc[nH]c2c1=O [Example 2, 6-methyl-4-(5-nitro-2-phenoxyphenyl)-1,6-dihydro-7H-pyrrolo[2,3-c]pyridin-7-one] | 178 nM | 529 nM | 860 nM | – | – | –
Cn1cc(-c2cc(N)ccc2Oc2ccccc2)c2cc[nH]c2c1=O [Example 3, 4-(5-amino-2-phenoxyphenyl)-6-methyl-1,6-dihydro-7H-pyrrolo[2,3-c]pyridin-7-one] | – | – | 185 nM | – | – | –
CCOC(=O)c1ccc(Oc2ccccc2)c(-c2cn(C)c(=O)c3[nH]ccc23)c1 [Example 9, ethyl 3-(6-methyl-7-oxo-6,7-dihydro-1H-pyrrolo[2,3-c]pyridin-4-yl)-4-phenoxybenzoate] | – | – | 113 nM | 1 min | – | –
Cn1cc(-c2cc(Cn3cccn3)ccc2Oc2ccccc2)c2cc[nH]c2c1=O [Example 30, 6-methyl-4-[2-phenoxy-5-(1H-pyrazol-1-ylmethyl)phenyl]-1,6-dihydro-7H-pyrrolo[2,3-c]pyridin-7-one] | – | – | 562 nM | – | – | –
Cn1cc(-c2cc(NC(=O)CC(F)(F)F)ccc2Oc2ccc(F)cc2F)c2cc[nH]c2c1=O [Example 38, N-[4-(2,4-difluorophenoxy)-3-(6-methyl-7-oxo-6,7-dihydro-1H-pyrrolo[2,3-c]pyridin-4-yl)phenyl]-3,3,3-trifluoropropanamide] | 257 nM | 148 nM | – | – | 25 min | 16.8 min
Cn1cc(-c2cc(NC(=O)C(C)(C)C)ccc2Oc2ccc(F)cc2F)c2cc[nH]c2c1=O [Example 39, N-[4-(2,4-difluorophenoxy)-3-(6-methyl-7-oxo-6,7-dihydro-1H-pyrrolo[2,3-c]pyridin-4-yl)phenyl]-2,2-dimethylpropanamide] | 124 nM | 112 nM | – | – | 8 min | 9.7 min
Cn1cc(-c2cc(C(=O)N3CCS(=O)(=O)CC3)ccc2Oc2ccc(F)cc2F)c2cc[nH]c2c1=O [Example 52, 4-{2-(2,4-difluorophenoxy)-5-[(1,1-dioxidothiomorpholin-4-yl)carbonyl]phenyl}-6-methyl-1,6-dihydro-7H-pyrrolo[2,3-c]pyridin-7-one] | – | – | 309 nM | – | – | –
Cn1nc(-c2cc(NS(C)(=O)=O)ccc2Oc2ccccc2)c2cc(C(=O)O)[nH]c2c1=O [Example 77, 6-methyl-4-{5-[(methylsulfonyl)amino]-2-phenoxyphenyl}-7-oxo-6,7-dihydro-1H-pyrrolo[2,3-d]pyridazine-2-carboxylic acid] | – | – | > 3000 nM | – | – | –
CN1CCN(CCNC(=O)c2cc3c(-c4cc(NS(C)(=O)=O)ccc4Oc4ccccc4)nn(C)c(=O)c3[nH]2)CC1 [Example 79, 6-methyl-N-[2-(4-methylpiperazin-1-yl)ethyl]-4-{5-[(methylsulfonyl)amino]-2-phenoxyphenyl}-7-oxo-6,7-dihydro-1H-pyrrolo[2,3-d]pyridazine-2-carboxamide] | – | – | 887 nM | – | – | –
CN(C)S(=O)(=O)c1cnc(OC2CCOC2)c(-c2cn(C)c(=O)c3[nH]ccc23)c1 (stereo not drawn) [Example 110, N,N-dimethyl-5-(6-methyl-7-oxo-6,7-dihydro-1H-pyrrolo[2,3-c]pyridin-4-yl)-6-(tetrahydrofuran-3-yloxy)pyridine-3-sulfonamide] | – | – | 32.4 nM | – | – | –
Cn1cc(-c2cc(C(=O)Nc3ncccn3)ccc2Oc2ccc(F)cc2F)c2cc[nH]c2c1=O [Example 116, 4-(2,4-difluorophenoxy)-3-(6-methyl-7-oxo-6,7-dihydro-1H-pyrrolo[2,3-c]pyridin-4-yl)-N-(pyrimidin-2-yl)benzamide] | 89.1 nM | 105 nM | – | – | – | –
COc1ccc(NC(=O)c2ccc(Oc3ccc(F)cc3F)c(-c3cn(C)c(=O)c4[nH]ccc34)c2)c(OC)n1 [Example 117, 4-(2,4-difluorophenoxy)-N-(2,6-dimethoxypyridin-3-yl)-3-(6-methyl-7-oxo-6,7-dihydro-1H-pyrrolo[2,3-c]pyridin-4-yl)benzamide] | 486 nM | 2300 nM | – | – | 36 min | 34 min
COc1ccc2[nH]cc(CCNC(=O)c3ccc(Oc4ccc(F)cc4F)c(-c4cn(C)c(=O)c5[nH]ccc45)c3)c2c1 [Example 124, 4-(2,4-difluorophenoxy)-N-[2-(5-methoxy-1H-indol-3-yl)ethyl]-3-(6-methyl-7-oxo-6,7-dihydro-1H-pyrrolo[2,3-c]pyridin-4-yl)benzamide] | 169 nM | 320 nM | – | – | 4 min | 2 min
COc1cc(CNC(=O)c2ccc(Oc3ccc(F)cc3F)c(-c3cn(C)c(=O)c4[nH]ccc34)c2)cc(OC)c1OC [Example 130, 4-(2,4-difluorophenoxy)-3-(6-methyl-7-oxo-6,7-dihydro-1H-pyrrolo[2,3-c]pyridin-4-yl)-N-(3,4,5-trimethoxybenzyl)benzamide] | 174 nM | 183 nM | – | – | – | –
